Measurements taken from US6534516B1, “Androgen receptor modulator compounds and methods” (Ligand Pharmaceuticals Incorporated, priority 1996, dated 2003).
Read-outs that look alike come from different tables or passages of the source.

How the values were obtained:
human AR = target: T1, human AR (Homo sapiens, UniProt P10275); experiment: cell-based; settings: read-out: AR Binding Ki
T1 construct: expressed in transfected cells; host or cells: CV-1 cells (African green monkey kidney fibroblasts)
T1 sequence (P10275 1-920): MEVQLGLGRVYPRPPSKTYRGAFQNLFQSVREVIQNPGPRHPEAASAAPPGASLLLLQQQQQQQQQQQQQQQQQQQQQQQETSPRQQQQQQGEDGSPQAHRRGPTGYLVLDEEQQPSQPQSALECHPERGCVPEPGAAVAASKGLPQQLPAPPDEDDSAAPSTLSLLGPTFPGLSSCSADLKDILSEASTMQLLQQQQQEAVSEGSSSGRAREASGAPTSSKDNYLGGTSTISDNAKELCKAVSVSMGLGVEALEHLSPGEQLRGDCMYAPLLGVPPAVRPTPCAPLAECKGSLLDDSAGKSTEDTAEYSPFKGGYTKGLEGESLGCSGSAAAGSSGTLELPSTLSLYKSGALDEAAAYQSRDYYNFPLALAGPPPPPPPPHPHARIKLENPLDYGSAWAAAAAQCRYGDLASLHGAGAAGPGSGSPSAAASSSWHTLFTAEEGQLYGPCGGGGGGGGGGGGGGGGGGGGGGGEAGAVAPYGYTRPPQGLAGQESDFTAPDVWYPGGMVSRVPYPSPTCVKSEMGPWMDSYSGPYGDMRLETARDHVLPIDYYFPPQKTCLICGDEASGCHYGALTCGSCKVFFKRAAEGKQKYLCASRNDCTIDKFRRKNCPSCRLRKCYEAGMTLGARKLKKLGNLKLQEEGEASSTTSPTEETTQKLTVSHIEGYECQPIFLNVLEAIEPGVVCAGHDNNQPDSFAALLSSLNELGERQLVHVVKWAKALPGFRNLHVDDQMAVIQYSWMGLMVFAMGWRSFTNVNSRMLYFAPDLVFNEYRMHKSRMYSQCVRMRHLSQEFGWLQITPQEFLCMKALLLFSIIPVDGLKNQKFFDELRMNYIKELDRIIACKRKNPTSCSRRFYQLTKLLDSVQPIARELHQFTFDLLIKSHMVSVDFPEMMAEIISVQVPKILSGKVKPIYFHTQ

MR = target: T2, MR (Homo sapiens, UniProt P08235); experiment: Co-transfection assay, cross-reactivity on MR; format: cell-based
T2 construct: expressed in transfected cells
T2 sequence (P08235 1-984): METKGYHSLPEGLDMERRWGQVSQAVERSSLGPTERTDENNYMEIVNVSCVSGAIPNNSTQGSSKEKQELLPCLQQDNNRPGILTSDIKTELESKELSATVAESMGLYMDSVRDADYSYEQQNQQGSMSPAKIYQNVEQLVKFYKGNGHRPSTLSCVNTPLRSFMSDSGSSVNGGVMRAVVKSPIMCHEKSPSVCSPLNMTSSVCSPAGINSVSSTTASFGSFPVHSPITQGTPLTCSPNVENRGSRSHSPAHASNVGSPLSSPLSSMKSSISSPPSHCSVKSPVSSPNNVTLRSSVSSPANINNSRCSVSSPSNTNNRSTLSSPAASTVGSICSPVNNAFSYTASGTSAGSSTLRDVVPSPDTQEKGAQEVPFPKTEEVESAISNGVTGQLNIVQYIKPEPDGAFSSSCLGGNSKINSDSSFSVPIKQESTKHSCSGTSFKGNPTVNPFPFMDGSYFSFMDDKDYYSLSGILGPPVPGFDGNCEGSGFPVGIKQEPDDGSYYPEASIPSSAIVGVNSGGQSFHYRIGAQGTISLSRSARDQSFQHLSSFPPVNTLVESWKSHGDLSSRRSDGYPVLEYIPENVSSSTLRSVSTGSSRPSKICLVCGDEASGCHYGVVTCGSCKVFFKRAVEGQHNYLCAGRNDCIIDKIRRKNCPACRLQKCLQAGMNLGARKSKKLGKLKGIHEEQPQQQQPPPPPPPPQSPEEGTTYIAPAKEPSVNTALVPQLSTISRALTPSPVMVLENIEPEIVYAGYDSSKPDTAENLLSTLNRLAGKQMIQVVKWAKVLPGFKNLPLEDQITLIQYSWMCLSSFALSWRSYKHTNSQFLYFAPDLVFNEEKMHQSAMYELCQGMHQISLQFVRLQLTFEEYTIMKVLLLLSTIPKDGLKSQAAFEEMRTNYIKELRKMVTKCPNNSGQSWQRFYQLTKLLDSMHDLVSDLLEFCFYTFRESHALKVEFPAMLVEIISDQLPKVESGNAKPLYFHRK

[1] = tested on: immature castrated male rat; experiment: Immature castrated male rat model with testosterone silastic implant, ventral prostate and seminal vesicle weights; format: in vivo; settings: for ED50: Rattus norvegicus, po, 72 h; for Seminal Vesicles weight / Ventral Prostate weight: 3 days
From the text: The activity of selected compounds of the present invention as AR antagonists was *~ investigated in an immature castrated male rat model. A recognized test of the antiandrogen activity of a given compound, as described in L. G. Hershberger et al., 83 Proc. Soc. Exptl. […] Similar approaches have been used in the rat and in hamsters. […] Dermatol.
The basis of this assay is the fact that male sexual accessory organs, such as the prostate and seminal vesicles, play an important role in reproductive function. […] See F. Labrie et al., 16 Clin. Invest. […] However, this is not a major pathway since, in both animals and humans, castration without concomitant adrenalectomy leads to almost complete involution of the prostate and seminal vesicles. […] See M. C. […] Since the male sex organs are the tissues most responsive to modulation by androgen activity, this model is used to determine the androgen-dependent growth of the sex accessory organs in immature castrated rats.
Immature male rats (50-60 g, 21 day-old Sprague-Dawley, Harlan) were castrated under metofane anesthesia. […] As a negative control, a group of castrated animals received empty 10 mm silastic implants. Animal groups were dosed for 3 days by oral gavage as follows:
At the end of the 3-day treatment, the animals were sacrificed, and the ventral prostates and seminal vesicles were collected and weighed. Organ weight data were normalized to body weight of each animal and expressed as mg/100 g body weight. Results were analyzed by analysis of variance followed by the Dunnett's test. Data were transformed to comply with the normality and variance homogeneity criteria required to utilize the analysis of variance and Dunnett's test. The following data transformations were used for the ventral prostate and seminal vesicle: square root and power 0.7 respectively. Thereafter, the data were fitted to a four-parameter logistic equation and potencies derived from the fitted estimates. The same data transformations were used for the equation-fitting phase of the data analysis.
The gain and loss of sexual organ weights reflect the changes of cell number (DNA content) and cell mass (protein content), depending upon the serum androgen concentrations. […] Therefore, measurement of organ wet weights is sufficient to indicate the bioactivity of androgens and androgen antagonists.

CC1(C)CCc2cc3c(C(F)(F)F)c(F)c(=O)[nH]c3cc2N1 [Compound 105, 7-Fluoro-1,2,3,4-tetrahydro-2,2-dimethyl-6-trifluoromethyl-8-pyridono[5,6-g]quinoline]
Ki (human AR): 21 ± 11 nM
IC50 (MR): 2260 nM
suppression of seminal vesicle weight relative to castrate levels (in words) ([1]; 30 mg/kg): complete suppression to castrate levels
suppression of ventral prostate weight relative to castrate levels (in words) ([1]; 30 mg/kg): suppresses ventral prostate weight to castrate levels
ED50 ([1]; read-out: Potency (ED50) Weighted Average ± SE, Seminal Vesicle Weight): 7.5 ± 1.3 mg/kg
ED50 ([1]; read-out: Potency (ED50) Weighted Average ± SE, Ventral Prostate Weight): 3.1 ± 0.7 mg/kg
Seminal Vesicles weight ([1]; T implant + 0.1 mg/kg oral): 28.1 ± 3.6 (5) mg/100 g body weight
Ventral Prostate weight ([1]; T implant + 0.1 mg/kg oral): 74.8 ± 5.4 (5) mg/100 g body weight
Seminal Vesicles weight ([1]; T implant + 1 mg/kg oral): 27.4 ± 1.7 (5) mg/100 g body weight
Ventral Prostate weight ([1]; T implant + 1 mg/kg oral): 63.6 ± 6.6 (5) mg/100 g body weight
Seminal Vesicles weight ([1]; T implant + 3 mg/kg oral): 24.9 ± 0.9 (5) mg/100 g body weight
Ventral Prostate weight ([1]; T implant + 3 mg/kg oral): 48.4 ± 6.6 (5) mg/100 g body weight
Seminal Vesicles weight ([1]; T implant + 10 mg/kg oral): 15.2 ± 0.3 (5) mg/100 g body weight
Ventral Prostate weight ([1]; T implant + 10 mg/kg oral): 40.0 ± 1.3 (5) mg/100 g body weight
Seminal Vesicles weight ([1]; T implant + 30 mg/kg oral): 7.1 ± 1.4 (5) mg/100 g body weight
Ventral Prostate weight ([1]; T implant + 30 mg/kg oral): 24.6 ± 2.0 (5) mg/100 g body weight
Seminal Vesicles weight ([1]; T implant + 100 mg/kg oral): 7.6 ± 1.4 (5) mg/100 g body weight
Ventral Prostate weight ([1]; T implant + 100 mg/kg oral): 23.6 ± 2.2 (5) mg/100 g body weight
